Patent US10947207B2, “GP130 modulators” (THE REGENTS OF THE UNIVERSITY OF CALIFORNIA, priority 2016, dated 2021)
Where “and” joins values, the source holds several entries; their conditions need not be identical. Identical values can stand only once. Entries after “also recorded” stand apart in the source; their conditions may differ. Like-named read-outs stand apart in the source and are kept apart here.

Assays:
[1] = system: NMDA-treated primary hippocampal neurons; experiment: NMDA-triggered LDH release in primary hippocampal neuron culture; settings: for effect of SC144 on the protection by compounds 2 or 8 against NMDA-evoked excitotoxicity (LDH): SC144 pretreatment/co-treatment with compound 2 or 8; for effect on NMDA-triggered LDH release (in words): 10 μM, 16 h pretreatment, NMDA 100 μM, 2.5 h, compared with NMDA alone
Source text: In this study, the cytotoxicity of NMDA was quantified by measuring the activity of lactate dehydrogenase (LDH) released from the cultured neurons into the medium and confirmed by living cell density analysis using calcein staining. […] MK-801, a noncompetitive antagonist of NMDA receptor, was used as a control [Wong et al., 1986, Proc. Natl. Acad. Sci. U.S.A., 83(18):7104].
(§1) In the present study, primary cultures of hippocampal neurons from E15-16 mouse embryos (C57BL/6) were used. The culture was made according to a previously described protocol with minor modifications [Bilousova et al. 2006, J. Neurochem. 97(1):44]. Hippocampi were isolated in ice-cold D-Hanks buffer containing (in mM: NaCl 136.7, KCl 5.4, NaHCO3 4.2, KH2PO4 0.4, NaH2PO4 0.6, glucose 5.6, and pH 7.4). In order to achieve a single cell suspension, hippocampal tissues were treated with papain (0.5 μg/mL) and Dnase (0.6 μg/mL) for 20 min at 37° C., followed by mechanical dissociation in complete media (Neurobasal medium supplemented with B27 (Invitrogen), 25 μM glutamate, and 1% penicillin-streptomycin). The cells were plated on poly-DL-ornithine (0.5 mg/mL), and laminin (5 μg/mL) pre-coated 96-well plates (Costar) at density 1×10^5 cells/mL and maintained in a humidified 5% CO2 incubator at 37° C. The proliferations of non-neuronal cells were limited by 48 h treatment with cytosine arabinoside (10 μM) started on first day in vitro (DIV1). All experiments were performed at 9 DIV cells.
Hippocampal neurons isolated from embryos were cultured for 8 days before treatment with chemical modulators (compounds). […] Briefly, the cells were washed three times with prewarmed Locke's buffer containing (in mM: NaCl 154, KCl 5.6, NaHCO3 3.6, CaCl2 2.3, MgCl2 1.2, glucose 5.6, HEPES 5, and pH 7.4) to remove traces of growth medium. […] The incubation was terminated by removal of compound-containing buffer, followed by washing with prewarmed drug-free Locke's buffer containing 1 mM Mg^2+.
Assessment of cell damage was done by measuring the LDH activity in the culture medium. The experiment was performed per the manufacturer's protocol (Promega). Release LDH levels were expressed as a percentage compared with that of the DMSO control group (100%).

[2] = Pharmacokinetic study, brain and plasma levels in mice; type: in vivo, mouse; settings: for Cmax: mouse, brain
Procedure: Since any potential therapeutic for AD needs to cross the blood-brain barrier (BBB), we further evaluated the brain permeability of Gp130 compound 2 in mice. Mice were dosed orally at 10 or 30 mg/kg, or injected subcutaneously (SQ) at 10 mg/kg, and euthanized after 1, 2, 4, 6, and 8 hours post-dose. […] The brain to plasma ratio for compound 2 was ˜4:1 for oral 30 mg/kg; and […] for 10 mg/kg SQ injection. Based on the oral brain levels of compound 2 we will conduct proof-of-concept testing in a mouse model of NMDA-induced toxicity in future studies.
The brain penetrance and plasma levels of compound 2 were assessed in a pharmacokinetic (PK) study comprising oral dosing (30 mg/kg and 10 mg/kg) and subcutaneous (sub-Q, 10 mkd) injection. For each route and dose, 5 adult wildtype mice received either 5 μL of a 50 mg/ml stock in 100% DMSO mixed 50:50 with flavoring to give 10 μL total for 10 mg/kg oral; or 10 μL of a 75 mg/ml stock in 100% DMSO mixed 50:50 with flavoring to give 20 μL final for 30 mg/kg oral; or were injected with 50 μL of a 5 mg/ml stock in 100% DMSO for sub-Q 10 mg/kg, Mice were euthanized by ketamine/xylazine over-anesthesia at 1, 2, 4, 6, and 8 h post-dosing, and blood collected by cardiac puncture. The mice were then perfused with saline and brain tissue dissected and snap frozen on dry ice. Blood was centrifuged at 3000 rpm for 10 min and the plasma supernatant was collected. Both plasma and the right hemi-brain were sent to Integrated Analytical Solutions (IAS, Berkeley, Calif.) with a reference sample of compound for compound level analysis in tissue and plasma. The compound levels were determined using a LC-MS/MS approach.

[3] = system: NMDA-treated hippocampal neurons; experiment: Calcein staining, density of living neurons under NMDA-induced excitotoxicity; type: cell-based, mouse; settings: 10 μM pretreatment, NMDA 100 μM, 2.5 h
Source text: Calcein staining was employed to evaluate the density of living neurons. A highly lipophilic non-fluorescent and cell permeable compound, calcein-acetoxymethyl ester (calcein-AM) was used for staining. Calcein-AM can be converted by intracellular esterases into calcein, an anionic fluorescent form, only labeling viable cells, and thus provides both morphological and functional information about undamaged cells.
as §1
Hippocampal neurons isolated from embryos were cultured for 8 days before treatment with chemical modulators (compounds). […]
A highly lipophilic non-fluorescent and cell permeable compound, calcein-acetoxymethyl ester (calcein-AM) was used to determine cell viability. […] Fluorescent images of live cells were collected using Lionheart FX automated digital microscope equipped with 4× objective and GFP filter cube (469/525); data was processed and analyzed using Gen5 software v. […]

[4] = system: pTyr-STAT3 in SH-SY5Y cells; experiment: pSTAT3 AlphaLISA in SH-SY5Y cells; type: cell-based, human; settings: 30 minutes, 1 μM
Procedure: Accordingly, the human neuroblastoma cell line SH-SY5Y was used, known to express the IL-6 receptor, […] to determine JAK-STAT activation as reflected by increases in pSTAT3. In the studies set forth in FIG. 2, cells were treated for 30 minutes with potential agonists PA1, PA2, and PA3; and then lysates were analyzed using the Sure-Fire Perkin-Elmer AlphaLISA for pTyr-STAT3.

human chondrocytes = settings: cited from earlier work

O=C(NNc1nc2cc(F)ccc2n2cccc12)c1cnccn1 [SC144]
effect of SC144 on the protection by compounds 2 or 8 against NMDA-evoked excitotoxicity (LDH) [1]: prevented compound 2 rescue; also recorded: prevented this rescue
effect of SC144 on the protection by compounds 2 or 8 against NMDA-evoked excitotoxicity (LDH) ([1]; listed as SC-144): abated the protection

Fc1ccc(Nc2nc(-c3ccccc3)cs2)cc1 [Compound 2, N-(4-fluorophenyl)-4-phenylthiazol-2-amine]
oral brain permeability (in words) [2]: good oral brain permeability
oral bioavailability (in words) ([2]; dose of 30 mg/kg): orally bioavailable
Cmax ([2]; po, 10 mg/kg, oral 10 mg/kg, at 1 h, read-out: Cmax for brain): ~18 ng/g
Cmax ([2]; po, 30 mg/kg, oral 30 mg/kg, at 1 h post dose, read-out: Cmax for brain): ~570 nM and 156 ng/g
Cmax ([2]; po, 30 mg/kg, oral 30 mg/kg, read-out: Cmax): 570 nM
Cmax ([2]; subcutaneous, 10 mg/kg, SQ 10 mg/kg, at 2 h, read-out: Cmax for brain): 161 ng/g
density of living neurons (calcein staining) [3]: significance
density of living neurons (calcein staining) ([3]; listed as compound 2): no difference in density of living neurons
pSTAT3 levels over DMSO control [4]: increased pSTAT3
effect on NMDA-triggered LDH release (in words) [1]: greatest decrease
effect on NMDA-triggered LDH release (in words) ([1]; listed as compound 2): rescued the LDH increase

Fc1ccc(Nc2nc(-c3ccc(F)cc3)cs2)cc1 [Compound 8, N,4-bis(4-fluorophenyl)thiazol-2-amine]
effect on NMDA-triggered LDH release (in words) [1]: rescued LDH; also recorded: greatest decrease

C[C@]12N[C@H](Cc3ccccc31)c1ccccc12 [MK801, reference compound]
density of living neurons (calcein staining) [3]: significance
effect on NMDA-triggered LDH release (in words) [1]: rescued the LDH increase

Brc1ccc(Nc2nc(-c3ccccc3)cs2)cc1 [Compound 1, N-(4-bromophenyl)-4-phenylthiazol-2-amine]
apoptosis of human chondrocytes (human chondrocytes): reduce apoptosis of human chondrocytes
pSTAT3 (human chondrocytes): increase pSTAT3

HNG: potent HN analog, HN with a substitution of serine 14 to glycine (MAPRGFSCLLLLTGEIDLPVKRRA; UniProt Q8IVG9 1-24, looked up, variant S14G)
effect on NMDA-triggered LDH release (in words) [1]: significance

Brc1ccc(Nc2nc(-c3ccccc3)cs2)cc1 [compound 1 (PA1)]
Gp130 agonism (human chondrocytes; Shkhyan et al. submitted manuscript): Gp130 agonist

Fc1ccc(Nc2nc(-c3ccccc3)cs2)c(F)c1 [Compound 5, N-(2,4-difluorophenyl)-4-phenylthiazol-2-amine]
effect on NMDA-triggered LDH release (in words) [1]: greatest decrease

Brc1ccc(Nc2nc(-c3cccnc3)cs2)cc1 [Compound 4, N-(4-bromophenyl)-4-(pyridin-3-yl)thiazol-2-amine]
effect on NMDA-triggered LDH release (in words) [1]: greatest decrease

HN: 24-amino acid bioactive peptide encoded in the mitochondrial genome by the gene MT-RNR2
effect on NMDA-triggered LDH release (in words) [1]: non-significance; also recorded: only one of them was active
effect on neurons which were not treated with NMDA ([1]; no NMDA): Neither HN itself nor the compounds had effect
